According to patent publication US5912230A, “Anti-fungal and anti-bacterial histatin-based peptides” (priority 1998, dated 1999):
Where no end group is shown, it is not given here.

How the values were obtained:
[1] = test system: C. albicans blastoconidia; conditions: for C. albicans: % killing at 50 μM dose (scoring): highest response seen used in the scoring; for anti-fungal (fungicidal) activity, in words: C. albicans blastoconidia; for C. albicans: LD50 (μM) for % killing: blastoconidia, 1 h at 37° C., pH 7.4
From the text: C. albicans is a dimorphic yeast. It can exist in a yeast or blastoconidial form, which upon germination develops into the hyphal or germinated form. While the germinated form is considered to be more invasive, most of the C. albicans isolates harvested from the oral cavities of healthy individuals appear to be in the blastoconidial form. (Arendorf, T. M. et al. (1980), Arch. Oral Biol. 25:1-10; Gow, N.A.R. et al. (1987), Criti. Rev. Microbiol. 15:73-78; Odds, F. C. (1988), Candida and Candidosis, 2nd ed., Bailliere Tindall, London, England). Anti-fungal activity of synthetic histatin 5, histatin-based peptide 113, peptides based on portions of the amino acid sequences of histatin-based peptide 113 and peptides derived from histatin-based peptide 113 with specified amino acid substitutions was measured in assays designed to test the effectiveness of the peptides against the blastoconidia form of Candida (Table 1). These assays, which measure killing of blastoconidia of C. albicans, are described in Xu et al., which is herein incorporated by reference. (Xu, T. et al. (1991), Infect. Immun. 59(8):2549-2554).
A well-described strain of C. albicans was used in the bioassay. This strain, ATCC 44505, was originally isolated from the human oral cavity. Cultures were stored at 4° C. on Sabouraud dextrose agar plates (Difco Laboratories, Detroit, Mich.) until use. Stationary phase growth cells were obtained following growth at 30° C. for 18 h on Sabouraud dextrose agar plates. Colonies were harvested and suspended in 10 mM potassium phosphate buffer (PPB), pH 7.4.
To initiate log phase growth, an aliquot of stock C. albicans was suspended in Sabouraud dextrose broth (Difco) and incubated at 30° C. in a shaking water bath. The growth phase was determined by taking aliquots of the culture at one hour intervals to monitor the optical density (O.D.) at 560 nm. […] Log phase cells were harvested and utilized in the blastoconidia killing assay in a manner identical to that described for stationary phase cells. A final concentration of 10^5 cells/ml (either stationary or log phase fungus) was used in all assays.
The standard suspension buffer utilized in the blastospore killing assay was 0.01M PPB, pH 7.4. An alternate suspension buffer, N-2-hydroxyethylpiperazine-N'-2-ethanesulfonic acids (HEPES; Sigma Chemical Co., St. Louis, Mo.), pH 7.4, can also be utilized.
a. For the killing of blastoconidia assay, 50 μl aliquots of cells (2×10^5 cells/ml) diluted in suspension buffer were allowed to attach to a polystyrene 96-well micro-titer plate (COSTAR, Cambridge, Mass.) for 15 min at room temperature, and then incubated with an equal volume of a histatin or histatin peptide in suspension buffer for 1 h at 37° C. Controls were carried out in the absence of the histatin or histatin peptide. After incubation, wells were washed three times by centrifugation at 1,000 xg for 5 min and covered with aliquots of molten Sabouraud dextrose broth (Difco) containing 2% agarose (Sigma) at 45° C. The plate was then incubated at 30° C. for 8 h. Under such conditions, live cells will divide and begin to form colonies, while dead cells will remain as single cells. To determine the percentage of blastoconidia killed, a total of 100 single cells and/or colonies were counted under a Nikon inverted microscope at 400× magnification and the extent of killing was calculated using the formula: [1-(number of colonies in treated sample)/(number of colonies in control)]×100%.
Data were obtained by calculating the mean and standard deviation from triplicate assays.

[2] = test system: P. gingivalis hemagglutination of erythrocytes; test: histatin peptide inhibition of hemagglutination assay; assay type: cell-based, Porphyromonas gingivalis; conditions: for Hemagglutination: lowest dose (μM) at which hemagglutination was observed using P. Gingivalis: 2 hours at room temperature, visual examination
Protocol: The P. gingivalis strain of Section C.(1) was also used for the hemagglutination assays. The bacterial growth and culture conditions were also the same as those described in Section C.(1).
A classic assay was utilized to determine the hemagglutination potential of the P. gingivalis strain. Microorganisms were inoculated into BFB broth and cultured overnight, for approximately 24 hours at 37° C. under strictly anaerobic conditions with continuous agitation on a minishaker (IKA-Labortechnik, Staufen i. Br., Germany). The bacteria were harvested by centrifugatin at 3,000 r.p.m. for 20 min, at 4° C., washed twice in 0.01M phosphate buffered saline (PBS), pH 7.4, and suspended in the same buffer to an optical density of 1.0 at 550 nm. […] One ml of blood was drawn each time, washed twice in PBS at 1,000 r.p.m. for 10 min at 4° C. and suspended in the same buffer at a 2% (v/v) final concentration. Fifty μl of the bacterial suspension were serially diluted in PBS (two-fold steps) in a 96-well U-bottom microplate (Costar, Cambridge, Mass.). Fifty μl of the erythrocyte suspension were added to each well. Controls without bacteria or erythrocytes were included. The microplate was slightly shaken and incubated at room temperature for 2 hours. Visible examination on a white background was used to determine hemagglutination. The amount of hemagglutination was rated as none,(-), moderate (+/-), or strong (+). Erythrocytes in control wells with PBS precipitated to the center of the well, whereas erythrocyte-bacteria aggregates precipitated at the periphery of the bottom. The hemagglutination titer was expressed as the reciprocal of the highest dilution of the bacterial suspension providing visible hemagglutination.
Preparation of erythrocyte and bacterial suspensions were the same as for the hemagglutination assay. Fifty μl of histatin peptide solutions were diluted in PBS in a U-bottom microplate, at various two-fold concentrations with 600 nmole/ml being the highest. The bacterial concentration utilized was normally twice the minimal concentration which gave strong hemagglutination. Equal volumes of the bacterial suspension were poured into the wells containing the histatin peptides. Finally, 50 μl of erythrocyte suspension were added in each well. The microplate was slightly shaken and incubated at room temperature for 2 hours. Controls were made by replacement of the peptide dilutions with PBS only. The experiments were conducted at least twice. The lowest histatin peptide concentration without hemagglutination (complete inhibition) was determined upon visual examination. The highest final histatin peptide concentration utilized was 100 nmole/ml.

AKRHHGYKRK [peptide 119]
C. albicans: % killing at 50 μM dose (scoring) [1]: ++ (++20-50%) | anti-fungal (fungicidal) activity, in words [1]: C. albicans blastoconidia killing | bacteria mediated hemagglutination inhibition, in words [2]: bacteria mediated hemagglutination inhibition | Hemagglutination: lowest dose (μM) at which hemagglutination was observed using P. Gingivalis [2]: 25 µM

AKRHHGYKRKF [peptide 118]
C. albicans: % killing at 50 μM dose (scoring) [1]: ++++ (++++80-100%) | anti-fungal (fungicidal) activity, in words [1]: C. albicans blastoconidia killing | bacteria mediated hemagglutination inhibition, in words [2]: bacteria mediated hemagglutination inhibition | Hemagglutination: lowest dose (μM) at which hemagglutination was observed using P. Gingivalis [2]: 6.25 µM

peptide 117: subpeptide of peptide 113 (SEQ ID NO: 19) (KRHHGYKRKFH)
C. albicans: % killing at 50 μM dose (scoring) [1]: ++++ (++++80-100%) | anti-fungal (fungicidal) activity, in words [1]: C. albicans blastoconidia killing | bacteria mediated hemagglutination inhibition, in words [2]: bacteria mediated hemagglutination inhibition

AKRHHGYKR [peptide 120]
C. albicans: % killing at 50 μM dose (scoring) [1]: ++ (++20-50%) | anti-fungal (fungicidal) activity, in words [1]: C. albicans blastoconidia killing | bacteria mediated hemagglutination inhibition, in words [2]: bacteria mediated hemagglutination inhibition | Hemagglutination: lowest dose (μM) at which hemagglutination was observed using P. Gingivalis [2]: 50 µM

AKRHHGYKRKFH [peptide 113]
C. albicans: LD50 (μM) for % killing [1]: 5.8 µM | anti-fungal activity at pH 4.0, in words ([1]; pH 4.0): essentially devoid of anti-fungal activity | bacteria mediated hemagglutination inhibition, in words [2]: bacteria mediated hemagglutination inhibition | Hemagglutination: lowest dose (μM) at which hemagglutination was observed using P. Gingivalis [2]: 25 µM

KRHHGYKRKF [peptide 129]
C. albicans: LD50 (μM) for % killing [1]: 27 µM | bacteria mediated hemagglutination inhibition, in words [2]: bacteria mediated hemagglutination inhibition | Hemagglutination: lowest dose (μM) at which hemagglutination was observed using P. Gingivalis [2]: 50 µM

His 11: histatin 11 (SEQ ID NO: 11), subpeptide of peptide 113 (KRHHGYKR)
C. albicans: % killing at 50 μM dose (scoring) [1]: + (+<20%) | bacteria mediated hemagglutination inhibition, in words [2]: bacteria mediated hemagglutination inhibition | Hemagglutination: lowest dose (μM) at which hemagglutination was observed using P. Gingivalis [2]: 100 µM
